Tests used:
[1] = test system: pulmonary arterial rings from rats with PH; test: Chronic endothelium dysfunction by hypobaric hypoxia, in vivo minipump treatment, ex vivo 5-HT reactivity; settings: 3 weeks hypobaric hypoxia, ATT 0.7 mg/mL by abdominal minipump, no ATT in the organ bath, FIG. 4
Procedure: In order to investigate the protective effects of ATT on chronic endothelium damage, rats were housed during 3 weeks in hypobaric hypoxia chambers (50 kPa or 10% O2).
Continuous treatment was induced through a minipump placed in the abdominal cavity to deliver ATT (0.7 mg/mL) or its placebo (sulfobutylether beta-cyclodextrin) during the whole hypoxia.
After euthanasia of the animal, pulmonary arterial rings were placed in an organ bath and the reactivity of the vessel was investigated by using cumulative concentration-response curve with 5-HT (10 nM to 100 μM). This ex vivo part of the study was conducted without any addition of ATT in the organ bath, meaning that the effect was exclusively related to the chronic in vivo treatment through the minipump.

pulmonary arterial rings [2] = test: 5-HT contractile reactivity of pulmonary arterial rings with endothelium dysfunction (organ bath); design: species or system Wistar rats; settings: ATT 10 μM, 30 minutes preincubation
Procedure: (§1) Intrapulmonary arteries of the first order (IPA1) of Wistar rats (male, 300 g) were divided into short tubular segments with an external diameter of ≈1.5-2 mm and used for isometric contraction measurement.
(§2) Arterial rings were mounted in isolated organ bath systems (EMKA Technologies), containing Krebs solution (118 mM NaCl, 4.7 mM KCl, 1.2 mM MgSO4, […], 1.2 mM KH2PO4, 2.5 mM CaCl2), and 11 mM D-glucose, pH 7.4) at 37° C. and bubbled continuously with […].
(§3) Arterial rings were stretched to a basal tension of 0.8 to 1.0 g according to their diameter. Tissues were allowed to equilibrate for 1 hour in Krebs solution and washed out every 15 minutes. A high KCl solution (80 mM) was applied in order to obtain a reference contraction used to normalize subsequent contractile responses.
(§4) At the end of the experiment, endothelial function was tested on each ring by examining the relaxation induced by carbamylcholine, a potent vascular relaxing agent (100 μM; Sigma) on 1 μM or 30 nM Phe-induced pre-constricted pulmonary arterial rings. Passive and active mechanical properties were assessed using transducer systems, coupled to IOX2 software (v2.10.8, EMKA technologies, Paris, France) in order to facilitate data acquisition and analysis. Data were then analyzed using two-way ANOVA with Bonferroni post-tests (Prism 5 v.5.01).
Contractile responses were tested by constructing a cumulative concentration-response curve (CCRC) to 5-hydroxytryptamine [5-HT] (10 nM to 100 μM; Sigma). When indicated, tissues were preincubated during 30 minutes with ATT (10 μM), and then CCRC to 5-HT was performed in the presence or absence of the drug.
Evaluation of the role of endothelium on ATT effect was assessed using N^ω-nitro-L-arginine methyl ester [L-NAME] (100 μM, 30 minutes preincubation; Sigma) to inhibit nitric oxide-dependent relaxation, or 3-[(3-cholamidopropyl) dimethylammonio]-1-propanesulfonate [CHAPS] (0.3% in water, perfusion before mounting; Sigma) to physically damage the endothelium.

pulmonary arterial rings [3] = test: Relaxation of phenylephrine pre-constricted pulmonary arterial rings (organ bath); design: species or system Wistar rats
Procedure: as §1, §2, §3
Relaxation was assessed by injecting ATT (10 μM) on phenylephrine [Phe] (30 nM; Sigma) pre-constricted pulmonary arterial rings when contraction reached its steady-state.
as §4, with “The role” for “At the end”, “endothelium on ATT relaxant effect was assessed as aforementioned with L-NAME pre-incubation or CHAPS perfusion. Endothelial” for “the experiment, endothelial”, “100 μM carbamylcholine (Sigma)” for “carbamylcholine, a potent vascular relaxing agent (100 μM; Sigma)”

[4] = test system: TNF-α production by LPS-activated human macrophages; test: TNF-α production by LPS-activated human macrophages (multiplex detection); format: cell-based; settings: ATT 10 μM, LPS 1 μg/mL, 48 hours, multiplex assay, FIG. 1B
Procedure: (§5) CD14^+ human macrophages isolated from healthy donors were cultured with LPS (1 μg/mL) and ATT (10 μM) for 48 hours. At the end of the culture, the supernatants were collected and cytokine production was evaluated.
(§6) Production of TNF-α was measured by ELISA. Production of TNF-α and IL-10 were measured using a multiplex detection technique.

[5] = test system: Adult human primary ventricular cardiomyocytes; test: Human primary cardiomyocyte contractility assay after exposure to Kawasaki patient serum; format: cell-based; settings: 12 hours exposure to KD serum + ATT 1 μM
Procedure: Adult human primary ventricular cardiomyocytes were isolated from two healthy donors by AnaBios (San Diego, USA), using their CardioPRIME™ proprietary protocol.
These isolated cardiomyocytes were exposed for 12 hours to serum obtained from Kawasaki patients in acute crisis (between 2-6 days), supplemented or not with 1 μM of ATT. In parallel, cardiomyocytes were exposed to serum from Wegener's disease patients or from convalescent Kawasaki patients, under the same conditions.
The CardioPRIME™ protocol, run on a MultiCell platform by IonOptix, allows to measure several parameters. Upon electrical field stimulation to elicit contractions (tracked by the shape change in individual cardiomyocytes under optical bright field microscopy), the contractility transients could be analyzed for changes in contraction in the different conditions (amplitude of sarcomere shortening, peak height, maximum sarcomere departure velocity, maximum sarcomere return velocity, and decay time to 30% and 90% relaxation).

[6] = test system: TNF-α production in LPS-activated macrophages; test: TNF-α production by LPS-activated human macrophages (ELISA); format: cell-based; settings: ATT 10 μM, LPS 1 μg/mL, 48 hours, FIG. 1A
Procedure: as §5, §6

[7] = test system: IL-10 production by LPS-activated human macrophages; test: IL-10 production by LPS-activated human macrophages (multiplex detection); format: cell-based; settings: ATT 10 μM, LPS 1 μg/mL, 48 hours, multiplex assay, FIG. 1C
Procedure: as §5, §6

## COc1ccc(-c2cc(=S)ss2)cc1 [ATT, 5-(4-methoxyphenyl)-3H-1,2-dithiole-3-thione]
[1]
  hyper-reactivity of the vessel induced by 5-HT after chronic hypoxia: fully abolished
Pulmonary arterial rings [2]; CHAPS 0.3%, compared with normal endothelium function, FIG. 2A
  5-HT concentration response curve and maximum efficacy in presence of ATT and CHAPS: not significantly different
Pulmonary arterial rings [2]; L-NAME 100 μM, FIG. 2B
  5-HT concentration response curve with L-NAME: markedly shifted
  maximum effect of 5-HT with L-NAME: significantly reduced
Pulmonary arterial rings [3]; ATT 10 μM on 30 nM phenylephrine pre-constricted rings, FIG. 3
  amplitude of relaxation, ATT vs. CHAPS+ATT: similar
Pulmonary arterial rings [3]; ATT 10 μM on 30 nM phenylephrine pre-constricted rings, L-NAME 100 μM or CHAPS 0.3%, FIG. 3
  effect of pre-treatment with L-NAME or CHAPS on the relaxation mediated by the substance: failed 1 to affect
[4]
  TNF-α level in LPS-activated human macrophages: −51.2%
[5]; FIGS. 6A-C
  loss of contractility (peak height, sarcomere shortening, maximum sarcomere departure velocity): prevent this loss of contractility
[5]; FIGS. 6D-F
  loss of relaxation (maximum sarcomere return velocity, decay time to 90% and 30% relaxation): prevent the loss of relaxation
[6]
  production of TNF-α vs. LPS-activated condition: −88%
[7]
  production of IL-10: −60.3%

## C[N+](C)(C)CCOC(N)=O.[Cl-] [carbamylcholine]
Pulmonary arterial rings [3]; carbamylcholine 100 μM, Phe pre-constricted rings, data not shown
  relaxation under endothelium dysfunctions induced by L-NAME or CHAPS: fully abolished

— patent US20240335421A1, “ANETHOLE TRITHIONE FOR THE TREATMENT OF VASCULITIDES” (FRÉDÉRIC MARIN, priority 2021, published 2024)
